# Measurements reported in patent publication US20250204564A1, “TASTE MODIFYING COMPOSITIONS AND USES THEREOF” (Firmenich Incorporated, priority 2022, published 2025).
# Key:
# Type in all cases: in vivo
# [1] = system: Bitterness of Acetaminophen; assay: Blinded paired taste comparison, bitterness of acetaminophen; details: for C Chosen: panelists choosing comparative sample C as highest bitterness; for Test Sample Chosen: panelists choosing test sample as highest bitterness
# Protocol: A series of test samples and a comparative sample were prepared. The comparative sample (C) contained acetaminophen in water at a concentration of 90 mM. Four test samples were prepared. Each test sample contained acetaminophen in water at a concentration of 90 mM. In addition, one test sample (S1) also contained TM1 at 100 ppm, another sample (S2) contained TM1 at 50 ppm, another sample (S3) contained TM1 at 25 ppm, and another sample (S4) contained TM1 at 10 ppm. Sample pairs, a test sample and a comparative sample, were presented in a blinded fashion to panelists, they were asked to taste the samples and identify the sample with the highest bitterness.
# Bitterness of Coffee = assay: Blinded paired taste comparison, bitterness of instant coffee; details: sample S1: TM1 10 ppm in instant coffee (Taster's Choice French Roast) vs C, 33 panelists
# Protocol: A test sample and a comparative sample were prepared. The comparative sample (C) instant coffee (Taster's Choice French Roast, acquired in the United States) made according to the directions. The test sample (S1) consisted of instant coffee (Taster's Choice French Roast, acquired in the United States) made according to the directions and TM1 at a concentration of 10 ppm. Sample pairs, a test sample and a comparative sample, were presented in a blinded fashion to panelists, they were asked to taste the samples and identify the sample with the highest bitterness.
# [2] = system: Bitterness of Pea Protein; assay: Blinded paired taste comparison, bitterness of pea protein; details: sample S1: TM1 10 ppm + pea protein 4 wt % in water vs C, 30 panelists
# Protocol: A test sample and a comparative sample were prepared. The comparative sample (C) contained pea protein in water at a concentration of 4 wt %. The test sample (S1) contained pea protein in water at a concentration of 4 wt % and TM1 at a concentration of 10 ppm. Sample pairs, a test sample and a comparative sample, were presented in a blinded fashion to panelists, they were asked to taste the samples and identify the sample with the highest bitterness.
# [3] = system: Bitterness of Guaifenesin; assay: Blinded paired taste comparison, bitterness of guaifenesin; details: 39 panelists
# Protocol: A test sample and a comparative sample were prepared. The comparative sample (C) contained guaifenesin in water at a concentration of 24 mM. The test sample (S1) contained guaifenesin in water at a concentration of 24 mM and TM1 at a concentration of 50 ppm. Sample pairs, a test sample and a comparative sample, were presented in a blinded fashion to panelists, they were asked to taste the samples and identify the sample with the highest bitterness.
# Bitterness of Saccharin = assay: Blinded paired taste comparison, bitterness of saccharin; details: sample S1: TM1 10 ppm + saccharin 1000 ppm in water vs C, 33 panelists
# Protocol: A test sample and a comparative sample were prepared. The comparative sample (C) contained saccharin in water at a concentration of 1000 ppm. The test sample (S1) contained saccharin in water at a concentration of 1000 ppm and TM1 at a concentration of 10 ppm. Sample pairs, a test sample and a comparative sample, were presented in a blinded fashion to panelists, they were asked to taste the samples and identify the sample with the highest bitterness.
# [4] = system: Bitterness of Potato Protein; assay: Blinded paired taste comparison, bitterness of potato protein; details: sample S1: TM1 10 ppm + potato protein 4 wt % in water vs C, 39 panelists
# Protocol: A test sample and a comparative sample were prepared. The comparative sample (C) contained potato protein in water at a concentration of 4 wt %. The test sample (S1) contained potato protein in water at a concentration of 4 wt % and TM1 at a concentration of 10 ppm. Sample pairs, a test sample and a comparative sample, were presented in a blinded fashion to panelists, they were asked to taste the samples and identify the sample with the highest bitterness.
# Bitterness of Green Tea = assay: Blinded paired taste comparison, bitterness of green tea extract; details: 39 panelists; for C Chosen: panelists choosing comparative sample C as highest bitterness; for Test Sample Chosen: panelists choosing test sample as highest bitterness
# Protocol: A series of test samples and a comparative sample were prepared. The comparative sample (C) contained green tea extract in water at a concentration of 0.30 wt %. Two test samples were prepared. Each test sample contained green tea extract in water at a concentration of 0.30 wt %. In addition, one test sample (S1) also contained TM1 at 20 ppm, and another sample (S2) contained TM1 at 40 ppm. Sample pairs, a test sample and a comparative sample, were presented in a blinded fashion to panelists, they were asked to taste the samples and identify the sample with the highest bitterness.
# [5] = system: Bitterness of Grapefruit Juice; assay: Blinded paired taste comparison, bitterness of grapefruit juice; details: 39 panelists
# Protocol: A test sample and a comparative sample were prepared. The comparative sample (C) consisted of grapefruit juice. The test sample (S1) consisted of grapefruit juice and TM1 at a concentration of 10 ppm. Sample pairs, a test sample and a comparative sample, were presented in a blinded fashion to panelists, they were asked to taste the samples and identify the sample with the highest bitterness.
# Bitterness of Caffeine = assay: Blinded paired taste comparison, bitterness of caffeine; details: sample S1: TM1 10 ppm + caffeine 0.08 wt % in water vs C, 39 panelists
# Protocol: A test sample and a comparative sample were prepared. The comparative sample (C) contained caffeine in water at a concentration of 0.08 wt %. The test sample (S1) contained caffeine in water at a concentration of 0.08 wt % and TM1 at a concentration of 10 ppm. Sample pairs, a test sample and a comparative sample, were presented in a blinded fashion to panelists, they were asked to taste the samples and identify the sample with the highest bitterness.
# Bitterness of Ginseng = assay: Blinded paired taste comparison, bitterness of ginseng; details: sample S1: TM1 10 ppm + ginseng 0.036 wt % in water vs C, 39 panelists
# Protocol: A test sample and a comparative sample were prepared. The comparative sample (C) contained ginseng in water at a concentration of 0.036 wt %. The test sample (S1) contained ginseng in water at a concentration of 0.036 wt % and TM1 at a concentration of 10 ppm. Sample pairs, a test sample and a comparative sample, were presented in a blinded fashion to panelists, they were asked to taste the samples and identify the sample with the highest bitterness.
# [6] = sample S2: TM1 50 ppm + acetaminophen 90 mM in water vs C, 48 panelists
# [7] = sample S3: TM1 25 ppm + acetaminophen 90 mM in water vs C, 45 panelists
# [8] = sample S4: TM1 10 ppm + acetaminophen 90 mM in water vs C, 45 panelists
# [9] = panelists choosing comparative sample C as highest bitterness
# [10] = panelists choosing test sample as highest bitterness
# [11] = sample S1: TM1 20 ppm + green tea extract 0.30 wt % in water vs C
# [12] = sample S2: TM1 40 ppm + green tea extract 0.30 wt % in water vs C
smiles,measurement,setting,value
"CC(=O)c1cc2c(cc1NC(=O)CN1CCN(C(C)=O)CC1)OCCO2 [TM1, N-(7-acetyl-2,3-dihydrobenzo[b][1,4]dioxin-6-yl)-2-(4-acetylpiperazin-1-yl)acetamide]",C Chosen,"[1]; sample S1: TM1 100 ppm + acetaminophen 90 mM in water vs C, 31 panelists",27
same,C Chosen,[1]; [6],39
same,C Chosen,[1]; [7],33
same,C Chosen,[1]; [8],31
same,Test Sample Chosen,"[1]; sample S1: TM1 100 ppm + acetaminophen 90 mM in water vs C (acetaminophen 90 mM), 31 panelists",4
same,Test Sample Chosen,[1]; [6],9
same,Test Sample Chosen,[1]; [7],12
same,Test Sample Chosen,[1]; [8],14
same,C Chosen,Bitterness of Coffee; [9],27
same,Test Sample Chosen,Bitterness of Coffee; [10],6
same,C Chosen,[2]; [9],20
same,Test Sample Chosen,[2]; [10],10
same,C Chosen,"[3]; panelists choosing comparative sample C as highest bitterness, sample S1: TM1 50 ppm + guaifenesin 24 mM in water vs C",32
same,Test Sample Chosen,"[3]; panelists choosing test sample as highest bitterness, sample S1: TM1 50 ppm + guaifenesin 24 mM in water vs C (guaifenesin 24 mM)",7
same,C Chosen,Bitterness of Saccharin; [9],24
same,Test Sample Chosen,Bitterness of Saccharin; [10],9
same,C Chosen,[4]; [9],26
same,Test Sample Chosen,[4]; [10],13
same,C Chosen,Bitterness of Green Tea; [11],28
same,C Chosen,Bitterness of Green Tea; [12],26
same,Test Sample Chosen,Bitterness of Green Tea; [11],11
same,Test Sample Chosen,Bitterness of Green Tea; [12],13
same,C Chosen,"[5]; panelists choosing comparative sample C as highest bitterness, sample S1: TM1 10 ppm in grapefruit juice vs C",26
same,Test Sample Chosen,"[5]; panelists choosing test sample as highest bitterness, sample S1: TM1 10 ppm in grapefruit juice vs C (grapefruit juice)",13
same,C Chosen,Bitterness of Caffeine; [9],29
same,Test Sample Chosen,Bitterness of Caffeine; [10],10
same,C Chosen,Bitterness of Ginseng; [9],26
same,Test Sample Chosen,Bitterness of Ginseng; [10],13
